Results reported in patent publication US20250186416A1, “SMOKING CESSATION COMPOUNDS HAVING REDUCED NITROSAMINES AND ASSOCIATED METHODS” (Achieve Life Sciences, Inc., priority 2023, published 2025).
Where two headings read alike, the source gives them in different places.

Assays:
[1] = cited from earlier work

Row | SMILES | NNC equivalent in the standard tablet formulation (equivalent of 152 ppb in API) | highest level of NNC observed in representative batches of drug substance (API) (storage about 10 months to about 8 years after manufacture) | reported pH of ascorbic acid in water ([1]; 5 mg/ml) | reported pH of ascorbic acid in water ([1]; 50 mg/ml)
1 | O=c1cccc2n1C[C@@H]1CNC[C@H]2C1 [drug substance (API), cytisine] | approximately 0.46 ng/tablet | 152 ppb | – | –
2 | O=C1O[C@H]([C@@H](O)CO)C(O)=C1O [ascorbic acid] | – | – | 3 | 2
